Test results reported in patent publication US9696323B2, “Biomarkers for chagas disease related cardiomyopathy” (THE BOARD OF REGENTS OF THE UNIVERSITY OF TEXAS SYSTEM, priority 2013, dated 2017).

Experiments:
[1] = 2D-GE plasma proteome profile (differential protein expression) of T. cruzi-infected rats treated with PBN and/or BZ; format: in vivo, rat; settings: plasma
Excerpt: Certain embodiments include biomarkers identified in a previous study. Parasite persistence and oxidative damage in the heart are known to be of pathological significance during Chagas disease (Zacks et al., (2005) An Acad Bras Cienc, 77, 695-715; Gupta et al., (2009) Interdiscip Perspect Infect Dis, 2009, 190354). […] In the previous study the inventors identified 92 proteins that were differentially expressed or oxidized in chagasic plasma. Functional analysis allocated a majority of these proteins to inflammation/immunity and lipid metabolism categories, and to molecular pathways associated with cardiovascular dysfunction, e.g., myocardial infarction, hypertrophy, and fibrosis, and pulmonary embolism and hypertension. Some proteins in chagasic rats treated with PBN and/or BZ were allocated to curative pathways (immune regulation and cardiac remodeling). The 2D-GE results were validated by Western blotting. […] Increased plasma levels of GSN, MYL2, and VIM were directly correlated with the severity of cardiac disease in human chagasic patients. […] These findings have utility in diagnosing disease severity and designing suitable therapy for management of human chagasic patients.
Ingenuity Pathway Analysis (IPA) is a highly curated and comprehensive software used for the integration of proteins into networks and pathways with biological meaning (Thomas and Bonchev, (2010). Hum Genomics, 4, 353-360). Network analysis of the plasma proteome profile of chagasic rats identified four major sub-networks linked to host response to T. cruzi infection and disease development (Table V). The maximal numbers of the differentially expressed plasma proteins (19 proteins) in chagasic rats were associated with antigen presentation and inflammatory response category (Table V) and indicators of persistent inflammation, known to be of pathological significance in Chagas disease (Dhiman et al., (2009) Clinical and Vaccine Immunology, 16, 660-666; Tanowitz et al., (2009) Prog Cardiovasc Dis, 51, 524-539; Junqueira et al., (2010) Expert Rev Mol Med, 12, e29). Following functional analysis of the inflammation-associated proteins, 12 proteins (APOA1, APOE, C3, CFB, CFH, FGB, GSN, KRT10, PLG, SCG2, SERPINA1, and SERPINC1) were identified as being involved in immune cell trafficking and cell movement of leukocytes, granulocytes, phagocytes, neutrophils, and dendritic and antigen presenting cells. Some of the differentially expressed proteins in inflammation category were associated with activation (APOE, C3, CFH, GC and PLG), chemotaxis (C3, SCG2, SERPINA1, SERPINC1), and infiltration of leukocytes (APOA1, APOE, C3, PLG, KRT10) and neutrophils (C3, CFB, CFH, PLG). Up regulation of APOE, APOA1, APOH, GC and PLG in chagasic plasma was indicative of activation, binding and accumulation of macrophages in the disease state. Of the 19 differentially expressed inflammation-associated proteins, 11 proteins (APOE, C3, CFB, CFH, GSN, KRT10, SCG2, SERPINA1, SERPINC1, GC, and PLG) were carbonylated in chagasic plasma. […] Other proteins (APOE, C3, KRT3, and SCG2) were exposed to oxidation due to T. cruzi-induced, acute oxidative stress, but were normalized in expression and oxidation during the chronic phase.
Seventeen of the differentially expressed proteins in chagasic plasma, i.e., AFM, C4BPA, CACNA1D, DLGAP2, GC, KNG1, MUG1, MYLPF, MY05A, MY05B, PRPH, PZP, RAI14, and SCG2, were allotted to the lipid metabolism/molecular transport/small molecule biochemistry category (Table V) and functionally linked by IPA network analysis to lipid, fatty acid, and carbohydrate metabolism. A majority of the proteins in this category, i.e., ALB, APOA1, APOA4, APOE, APOH, C3, GC, GNAQ, MY05A, PLG, SCD2, SERPINA1, SERPINC1 and VIM, were linked to the synthesis, metabolism, transport, and modification of lipids and fatty acids, and to uptake and release or efflux of lipids, eicosanoids, and cholesterol. […]

T. cruzi [2] = settings: infected rats; BZ parasite-induced, PBN oxidative stress-induced (Wen et al. 2006, 2010); cited from earlier work
T. cruzi [3] = experiment: Oxidative modification (carbonylation) of plasma proteins in chagasic rats treated with PBN and/or BZ; format: in vivo, rat; settings: chagasic rat plasma; 5 of 11 carbonylated proteins (CFB, CFH, SERPRINA1, SERPINC1, PLG)
Excerpt: Certain embodiments include biomarkers identified in a previous study. Parasite persistence and oxidative damage in the heart are known to be of pathological significance during Chagas disease (Zacks et al., (2005) An Acad Bras Cienc, 77, 695-715; Gupta et al., (2009) Interdiscip Perspect Infect Dis, 2009, 190354). […] In the previous study the inventors identified 92 proteins that were differentially expressed or oxidized in chagasic plasma. Functional analysis allocated a majority of these proteins to inflammation/immunity and lipid metabolism categories, and to molecular pathways associated with cardiovascular dysfunction, e.g., myocardial infarction, hypertrophy, and fibrosis, and pulmonary embolism and hypertension. Some proteins in chagasic rats treated with PBN and/or BZ were allocated to curative pathways (immune regulation and cardiac remodeling). The 2D-GE results were validated by Western blotting. […] Increased plasma levels of GSN, MYL2, and VIM were directly correlated with the severity of cardiac disease in human chagasic patients. […] These findings have utility in diagnosing disease severity and designing suitable therapy for management of human chagasic patients. […]

CC(C)(C)/[N+]([O-])=C/c1ccccc1 [PBN]
Spot# 106 Average Normalized Density × 100,000 ([1]; RAP group (acute infection)): 1.70
Spot# 106 Average Normalized Density × 100,000 ([1]; RCP/RCB/RCPB groups (chronic infection)): 6.94
controlling parasite- and oxidative stress-induced pathology (T. cruzi [2]): beneficial effects
oxidative modification of inflammation-associated plasma proteins (T. cruzi [3]): prevented the oxidative modification of five of these proteins
